Data from ChEMBL document CHEMBL1201862, “PubChem BioAssay data set” (2004).
Active and inactive are the calls of the source. For most assays here, no stated cut-off is given here; in the data, actives have a measured EC50 and inactives only a lower limit.

Key:
[1] = Luminescence Cell-Based Dose Response HTS to Identify Activators of Luciferase Translation or Activity in H4 […] Cells. [Related pubchem assays: 1829 (Project Summary), 1814 (Primary HTS)]; type: functional
[2] = Luminescence Cell-Based Dose Confirmation HTS to Identify Activators of 5'UTR Stem-Loop Driven Alpha-Synuclein mRNA Translation in H4 Neuroglioblastoma Cells. [Related pubchem assays: 1829 (Project Summary), 1814 (Primary HTS)]; type: functional
[3] = molecular target: T1, Corticotropin-releasing factor receptor 2/Corticotropin-releasing factor-binding protein (Homo sapiens, UniProt P24387+Q13324); test: Dose Response confirmation of uHTS hits for small molecule antagonists of the CRF-binding protein and CRF-R2 receptor complex.; type: functional; conditions: read-out: IC50_Mean
T1 sequence (Q13324 whole entry): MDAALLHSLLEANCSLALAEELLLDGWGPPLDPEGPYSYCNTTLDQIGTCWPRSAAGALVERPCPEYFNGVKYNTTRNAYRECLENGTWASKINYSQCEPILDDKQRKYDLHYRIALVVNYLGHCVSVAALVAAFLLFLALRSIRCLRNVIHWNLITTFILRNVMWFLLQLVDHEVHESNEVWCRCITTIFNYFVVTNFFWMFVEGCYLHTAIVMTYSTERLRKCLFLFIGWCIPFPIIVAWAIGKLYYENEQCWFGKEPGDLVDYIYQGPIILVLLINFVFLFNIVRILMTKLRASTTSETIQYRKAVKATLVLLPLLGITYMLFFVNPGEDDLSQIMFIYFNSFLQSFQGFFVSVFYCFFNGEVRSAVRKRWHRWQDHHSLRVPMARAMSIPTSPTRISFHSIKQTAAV
T1 sequence (P24387 whole entry): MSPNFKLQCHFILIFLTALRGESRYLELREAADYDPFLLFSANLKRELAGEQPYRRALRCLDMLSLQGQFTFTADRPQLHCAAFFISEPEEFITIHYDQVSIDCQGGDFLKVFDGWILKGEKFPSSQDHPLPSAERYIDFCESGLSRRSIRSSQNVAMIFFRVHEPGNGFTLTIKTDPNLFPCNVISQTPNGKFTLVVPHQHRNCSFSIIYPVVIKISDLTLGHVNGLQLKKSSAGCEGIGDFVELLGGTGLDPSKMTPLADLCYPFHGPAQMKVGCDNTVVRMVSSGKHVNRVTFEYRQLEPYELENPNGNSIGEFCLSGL

[4] = molecular target: T1, Corticotropin-releasing factor receptor 2/Corticotropin-releasing factor-binding protein; test: activators of CRF receptor 2 with binding protein – uHTS hits, confirmation (AID 602473); type: functional; conditions: read-out: EC50_Mean
H4 = test: Luminescence Cell-Based Dose Response HTS to Identify Activators of 5'UTR Stem-Loop Driven Prion Protein mRNA Translation in H4 Neuroglioblastoma Cells. [Related pubchem assays: 1829 (Project Summary), 1814 (Primary HTS)]; type: functional; conditions: Homo sapiens
[5] = HepG2 cell cytotoxicity, dose response, cytotoxicity control for Shn3 inhibitor project, CellTiter-Glo, cherry-picked (AID 624134); type: functional, cell-based
[6] = Shn3 3'UTR reporter inhibitors, dose response, cell-based, Clone20 osteoblasts, firefly luciferase, cherry-picked (AID 624132); type: functional;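 further: firefly luciferase luminescence from reporter carrying the Shn3 3'UTR in osteoblasts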
[7] = control 3'UTR Renilla luciferase suppression, dose response, counter-screen for Shn3 inhibitor project, cell-based, Clone20-Shn3RL, cherry-picked (AID 624133); type: functional
[8] = cytotoxicity toward NIH3T3 fibroblasts, dose response, counter-screen, cell-based, ATP luminescence, mouse fibroblasts (AID 2010); type: functional;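 further: cells exposed to compound for about 90 hours before reading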
[9] = inhibitors of intracellular T. cruzi replication, confirmation, NIH3T3 host cells, beta-gal luminescence (AID 2044); type: functional, cell-based;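 further: intracellular parasites grown in NIH/3T3 mouse fibroblasts as host cells; luminescent beta-galactosidase reporter signal from transgenic T. cruzi replicating inside host cells; inhibitors lower the luminescence signal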
[10] = inhibitors of firefly luciferase expression or activity, dose response, H4 neuroglioma cells, luminescence (AID 1990); type: functional, cell-based
[11] = inhibitors of SNCA 5'UTR-driven reporter translation, confirmation, H4 neuroglioma cells, luminescence (AID 1988); type: functional, cell-based
[12] = Luminescence Cell-Based Dose Response HTS to Identify Inhibitors of 5'UTR Stem-Loop Driven Prion Protein mRNA Translation in H4 Neuroglioblastoma Cells. [Related pubchem assays: 1827 (Project Summary), 1813 (Primary HTS)]; type: functional
Protein RecA = molecular target: T2, Protein RecA (Mycobacterium tuberculosis, UniProt P9WHJ3); test: Fluorescence Cell-Free Homogeneous Dose Retest to Identify Inhibitors of RecA-Intein Splicing Activity. [Related pubchem assays (depositor defined):AID2097, AID2223, AID489010, AID492950]; type: functional
T2 sequence (P9WHJ3 whole entry): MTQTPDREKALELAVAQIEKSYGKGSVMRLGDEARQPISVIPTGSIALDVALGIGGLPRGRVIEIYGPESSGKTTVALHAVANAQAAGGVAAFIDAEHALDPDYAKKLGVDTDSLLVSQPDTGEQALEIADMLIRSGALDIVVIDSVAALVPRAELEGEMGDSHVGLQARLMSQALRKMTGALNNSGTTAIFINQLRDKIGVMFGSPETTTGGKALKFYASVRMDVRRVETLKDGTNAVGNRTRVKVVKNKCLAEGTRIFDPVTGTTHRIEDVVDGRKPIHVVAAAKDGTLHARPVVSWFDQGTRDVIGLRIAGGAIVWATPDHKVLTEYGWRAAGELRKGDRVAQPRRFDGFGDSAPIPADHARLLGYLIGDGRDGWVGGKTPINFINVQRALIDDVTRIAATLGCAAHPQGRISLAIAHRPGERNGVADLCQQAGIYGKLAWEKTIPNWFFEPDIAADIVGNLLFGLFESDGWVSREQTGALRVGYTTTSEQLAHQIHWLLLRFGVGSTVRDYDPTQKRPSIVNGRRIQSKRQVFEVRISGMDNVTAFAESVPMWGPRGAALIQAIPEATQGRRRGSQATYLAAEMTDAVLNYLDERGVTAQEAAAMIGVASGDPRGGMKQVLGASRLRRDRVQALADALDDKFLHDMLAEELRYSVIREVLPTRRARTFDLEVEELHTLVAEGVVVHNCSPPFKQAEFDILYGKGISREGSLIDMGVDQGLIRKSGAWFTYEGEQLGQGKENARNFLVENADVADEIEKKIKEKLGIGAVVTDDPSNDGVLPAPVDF

[13] = molecular target: T3, Replicative DNA helicase DnaB (Mycobacterium tuberculosis, UniProt P9WMR3); test: DnaB intein splicing inhibitors, dose response, biochemical, cell-free fluorescence (AID 449749); type: functional
T3 sequence (P9WMR3 whole entry): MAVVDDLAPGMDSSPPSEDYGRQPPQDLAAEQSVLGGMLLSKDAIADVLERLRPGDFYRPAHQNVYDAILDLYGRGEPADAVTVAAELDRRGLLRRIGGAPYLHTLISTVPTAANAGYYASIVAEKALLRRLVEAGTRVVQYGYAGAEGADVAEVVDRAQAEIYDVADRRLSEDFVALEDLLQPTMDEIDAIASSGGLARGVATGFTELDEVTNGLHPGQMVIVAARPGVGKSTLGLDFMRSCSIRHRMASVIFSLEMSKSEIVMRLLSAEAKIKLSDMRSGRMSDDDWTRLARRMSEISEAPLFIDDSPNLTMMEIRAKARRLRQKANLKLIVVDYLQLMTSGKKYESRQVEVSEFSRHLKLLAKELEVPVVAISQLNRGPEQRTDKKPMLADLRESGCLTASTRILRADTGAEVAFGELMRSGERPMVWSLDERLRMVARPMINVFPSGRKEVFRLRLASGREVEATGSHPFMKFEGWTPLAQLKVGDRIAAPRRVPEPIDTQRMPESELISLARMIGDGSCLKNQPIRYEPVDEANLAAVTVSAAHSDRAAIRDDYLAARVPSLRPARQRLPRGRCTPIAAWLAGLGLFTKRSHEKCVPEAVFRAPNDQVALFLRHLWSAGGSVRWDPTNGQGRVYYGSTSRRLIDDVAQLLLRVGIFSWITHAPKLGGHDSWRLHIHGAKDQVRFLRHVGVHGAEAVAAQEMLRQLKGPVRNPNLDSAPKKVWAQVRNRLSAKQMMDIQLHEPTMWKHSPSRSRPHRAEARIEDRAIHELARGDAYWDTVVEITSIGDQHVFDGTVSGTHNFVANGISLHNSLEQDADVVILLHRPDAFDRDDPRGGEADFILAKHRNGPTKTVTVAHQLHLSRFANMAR

Paired box protein Pax-8 = Paired box protein Pax-8 (Homo sapiens, UniProt Q06710); test: inhibitors of PAX8-driven TPO luciferase reporter, dose response, RMG-I cells, cherry-pick (AID 687027); type: functional, cell-based;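 further: luciferase reporter driven by Pax8 target thyroperoxidase promoter measured by SteadyGlo luminescence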
Paired box protein Pax-8, sequence (Q06710 whole entry): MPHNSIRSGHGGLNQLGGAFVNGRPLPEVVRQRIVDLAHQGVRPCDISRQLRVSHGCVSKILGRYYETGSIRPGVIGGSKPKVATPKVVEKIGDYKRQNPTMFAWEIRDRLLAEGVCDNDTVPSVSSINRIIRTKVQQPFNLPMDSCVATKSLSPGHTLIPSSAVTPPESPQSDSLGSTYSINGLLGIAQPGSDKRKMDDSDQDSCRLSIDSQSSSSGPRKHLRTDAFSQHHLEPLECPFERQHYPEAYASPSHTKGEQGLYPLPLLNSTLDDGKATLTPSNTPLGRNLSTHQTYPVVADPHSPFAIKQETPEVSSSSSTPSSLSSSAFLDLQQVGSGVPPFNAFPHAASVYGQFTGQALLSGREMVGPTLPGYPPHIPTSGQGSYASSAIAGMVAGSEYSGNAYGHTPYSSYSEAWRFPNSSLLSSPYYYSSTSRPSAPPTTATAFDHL

Row | Structure (SMILES) | EC50 [1] | EC50 [2] | IC50 [3] | EC50 [4] | EC50 (H4) | further results
1 | Cc1c(C(=O)NC(=S)NCC(C)C)oc2ccccc12 | 63.2 µM (active) | 27.2 µM (active) | – | – | – | –
2 | COCCn1c(SCC(=O)c2ccc3c(c2)OCCO3)nnc1-c1ccco1 | – | – | > 47.1 µM (inactive) | > 53 µM (inactive) | – | –
3 | CC1CCCCN1C(=O)CSc1nc2ccsc2c(=O)n1Cc1ccccn1 (stereo not given) | 5.86 µM (active) | 46.3 µM (active) | – | – | 9.84 µM (active) | –
4 | CCc1c(C)nc2ncnn2c1Nc1ccc(C(C)=O)cc1 | 92 µM (active) | 34.4 µM (active) | – | – | 57.4 µM (active) | –
5 | COc1ccc(OC)c(C(=O)Cn2nnc(-c3ccc(N4CCOCC4)cc3)n2)c1 | > 120 µM (not active) | > 120 µM (not active) | – | – | > 120 µM (not active) | –
6 | C[C@H]1CN=C(N(C)C)N1CC1CCC(C(C)(C)C)CC1 (stereo not given in full) | – | – | – | – | – | AC50 [5]: 41.5 µM (active); AC50 [6]: 2.27 µM (active); AC50 [7]: 20.3 µM (active)
7 | CC(C)c1ccc(NCCC(=O)c2cccs2)cc1 | 33.1 µM (active) | 4.14 µM (active) | – | – | 61.8 µM (active) | –
8 | Brc1ccc2c(c1)OCCOCCOc1cc(Br)ccc1OCCOCCOCCO2 | – | – | – | – | – | EC50 [8]: > 60 µM (not active); EC50 [9]: 1.04 µM (active); EC50 [10]: 14.1 µM (active); EC50 [11]: > 120 µM (not active); EC50 [12]: 103 µM (active)
9 | COc1ccc(NC(=O)CSc2nnc(N)s2)c([N+](=O)[O-])c1 | – | – | > 47.1 µM (inactive) | > 53 µM (inactive) | – | –
10 | O=C1CCCC/C1=C/Nc1ccc2c(c1)OCO2 | 7.34 µM (active) | 8.5 µM (active) | – | – | > 120 µM (not active) | –
11 | Cc1ccc(C(=O)NC(=S)NCC2CCCO2)cc1Br (stereo not given) | 21 µM (active) | 11 µM (active) | – | – | 45.5 µM (active) | –
12 | Cc1ccc(NC(=O)c2cc(NC(=O)/C=C\C(=O)O)ccc2N2CCCCC2)cc1 | – | – | > 47.1 µM (inactive) | > 53 µM (inactive) | – | EC50 (Protein RecA): 9.32 µM (active); AC50 [13]: 14.4 µM (active)
13 | CCOC(=O)N1CCN(C(=O)CCNS(=O)(=O)c2ccc3c(c2)c(=O)n(C)c(=O)n3C)CC1 | > 120 µM (not active) | > 120 µM (not active) | – | – | > 120 µM (not active) | –
14 | CCN1CCN(C(=O)C2=CC(c3ccc(OC)cc3)=NS(=O)(=O)N2C)CC1 | – | – | > 47.1 µM (inactive) | > 53 µM (inactive) | – | –
15 | c1ccc2c(c1)oc1c(NCC3CCCO3)ncnc12 (stereo not given) | 19 µM (active) | 8.39 µM (active) | – | – | 7.09 µM (active) | –
16 | Cc1ccsc1C1Nc2ccccc2-c2nc3ccccc3n21 (stereo not given) | 60.7 µM (active) | 24.3 µM (active) | – | – | 26.1 µM (active) | –
17 | NC(Cc1ccccc1Sc1ccccc1)=NO | – | – | > 47.1 µM (inactive) | > 53 µM (inactive) | – | –
18 | CN(Cc1cccs1)C(=O)Cc1csc(-c2ccccc2)n1 | 10.1 µM (active) | 32 µM (active) | – | – | 15.9 µM (active) | –
19 | COc1cc(CCC(=O)NC2(C)CCS(=O)(=O)C2)cc(OC)c1OC (stereo not given) | – | – | > 47.1 µM (inactive) | > 53 µM (inactive) | – | –
20 | COc1ccc(CCN2CCCC(CN(C)C(=O)c3cc(C)oc3C)C2)cc1 (stereo not given) | 31.9 µM (active) | 41.5 µM (active) | – | – | 32.7 µM (active) | EC50 [8]: > 60 µM (not active); EC50 [9]: 0.149 µM (active)
21 | COc1cc2c(c(OC)c1OC)-c1ccc(SC)c(=O)cc1C(NC=O)CC2 (stereo not given) | – | – | – | – | – | AC50 (Paired box protein Pax-8): < 0.26 µM (active)
22 | COc1ccc(S(=O)(=O)N2CCOCC2)cc1NC(=O)CC1CC2CCC1C2 (stereo not given) | – | – | > 47.1 µM (inactive) | > 53 µM (inactive) | – | –
23 | COc1ccc2ccccc2c1CNCCCN1CCOCC1 | – | – | > 47.1 µM (inactive) | > 53 µM (inactive) | – | –
24 | O=C(NCc1cc(C(F)(F)F)ccc1Cl)c1cccc2c1C(=O)c1ccc(N3CCCCC3)cc1S2(=O)=O | – | – | – | 6.26 µM (active) | – | –
25 | COc1cccc(CNC(=O)C2CCC(=O)N(CC3CCCCC3)C2)c1OC (stereo not given) | – | – | > 47.1 µM (inactive) | > 53 µM (inactive) | – | –
26 | COc1ccc(CC(N)c2csc(NC(=O)Nc3cccc(C(F)(F)F)c3)n2)cc1 (stereo not given) | – | – | – | – | – | AC50 [5]: 11 µM (active); AC50 [6]: 8.4 µM (active); AC50 [7]: 7.68 µM (active)
27 | Cc1ccc(-c2nn(-c3ccccc3)cc2/C=N/n2c(S)nnc2-c2ccncc2)cc1 | 34.3 µM (active) | > 120 µM (not active) | – | – | 34.1 µM (active) | –
28 | C[C@@H]1CN([C@@H](C)CO)C(=O)c2cc(NC(=O)Nc3cccc4ccccc34)ccc2O[C@@H]1CN(C)Cc1ccc2c(c1)OCO2 | – | – | – | – | – | AC50 (Paired box protein Pax-8): 18.5 µM (active)
29 | C[C@@H]1CCCCO[C@H](CN(C)C(=O)Nc2ccc(C(F)(F)F)cc2)[C@@H](C)CN([C@@H](C)CO)C(=O)c2cc(NS(=O)(=O)c3ccccc3)ccc2O1 | – | – | – | – | – | AC50 (Paired box protein Pax-8): 3.24 µM (active)
